From ChEMBL document CHEMBL5241065, “If small molecules immunotherapy comes, can the prime be far behind?” (Eur J Med Chem, 2021)
Blank lines part the entries; values can stand above or below the compound they belong to.

Legend:
Arginase-1 [1] = biological target: T1, Arginase-1 (Homo sapiens, UniProt P05089); assay: Inhibition of recombinant human ARG1 expressed in Escherichia coli using L-arginine hydrochloride as substrate incubated for 1 hr by colorimetric assay
T1 sequence (P05089 whole entry): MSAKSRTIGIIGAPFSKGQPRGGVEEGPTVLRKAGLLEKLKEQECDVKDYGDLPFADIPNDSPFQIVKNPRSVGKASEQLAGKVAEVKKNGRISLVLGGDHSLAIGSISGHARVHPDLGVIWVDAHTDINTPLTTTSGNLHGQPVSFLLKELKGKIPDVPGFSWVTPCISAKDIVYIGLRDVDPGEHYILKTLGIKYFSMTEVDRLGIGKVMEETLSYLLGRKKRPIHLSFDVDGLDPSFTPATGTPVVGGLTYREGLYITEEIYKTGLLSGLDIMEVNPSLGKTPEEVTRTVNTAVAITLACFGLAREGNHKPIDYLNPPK

[2] = biological target: T2, Arginase-2, mitochondrial (Homo sapiens, UniProt P78540); assay: Inhibition of recombinant human ARG2 expressed in Escherichia coli using L-arginine hydrochloride as substrate incubated for 1 hr by colorimetric assay
T2 sequence (P78540 whole entry): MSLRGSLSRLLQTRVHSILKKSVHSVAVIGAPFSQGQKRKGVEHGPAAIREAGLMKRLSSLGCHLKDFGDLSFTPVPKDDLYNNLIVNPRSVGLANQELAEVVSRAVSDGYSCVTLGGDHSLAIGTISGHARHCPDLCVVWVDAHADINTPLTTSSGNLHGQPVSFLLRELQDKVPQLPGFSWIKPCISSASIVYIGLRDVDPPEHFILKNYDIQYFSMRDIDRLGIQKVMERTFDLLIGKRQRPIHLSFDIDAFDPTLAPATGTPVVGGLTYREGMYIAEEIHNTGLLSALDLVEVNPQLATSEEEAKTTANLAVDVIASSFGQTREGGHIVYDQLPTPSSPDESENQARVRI

[3] = biological target: T2, Arginase-2, mitochondrial
[4] = biological target: Tyrosine-protein phosphatase non-receptor type 11 (Homo sapiens, UniProt Q06124, Q257L/T253M); assay: Inhibition of SHP2 T253M/Q257L mutant (unknown origin)
Chain of Tyrosine-protein phosphatase non-receptor type 11 (Homo sapiens, UniProt Q06124, Q257L/T253M) (Q06124 2-593 T253M/Q257L limits assumed): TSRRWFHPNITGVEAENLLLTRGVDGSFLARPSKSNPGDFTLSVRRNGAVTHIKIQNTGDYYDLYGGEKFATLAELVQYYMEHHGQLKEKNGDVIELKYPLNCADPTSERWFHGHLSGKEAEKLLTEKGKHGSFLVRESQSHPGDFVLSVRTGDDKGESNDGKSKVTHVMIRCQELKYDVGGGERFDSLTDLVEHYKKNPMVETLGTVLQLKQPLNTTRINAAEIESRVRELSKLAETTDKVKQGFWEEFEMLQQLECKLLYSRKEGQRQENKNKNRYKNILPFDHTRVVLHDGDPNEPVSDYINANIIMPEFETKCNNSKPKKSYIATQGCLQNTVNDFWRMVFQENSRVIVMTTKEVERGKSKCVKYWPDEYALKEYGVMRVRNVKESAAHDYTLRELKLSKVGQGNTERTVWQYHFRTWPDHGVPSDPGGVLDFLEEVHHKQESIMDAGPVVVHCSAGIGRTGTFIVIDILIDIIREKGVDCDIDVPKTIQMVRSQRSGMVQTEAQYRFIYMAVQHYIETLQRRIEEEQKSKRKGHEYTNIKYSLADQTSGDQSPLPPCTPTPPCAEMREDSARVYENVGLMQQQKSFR

[5] = biological target: Tyrosine-protein phosphatase non-receptor type 11 (Homo sapiens, UniProt Q06124); assay: Inhibition of SHP2 1-525 mutant (unknown origin)
[6] = biological target: Tyrosine-protein kinase BTK (Homo sapiens, UniProt Q06187)
Chain of Tyrosine-protein kinase BTK (Q06187 whole entry): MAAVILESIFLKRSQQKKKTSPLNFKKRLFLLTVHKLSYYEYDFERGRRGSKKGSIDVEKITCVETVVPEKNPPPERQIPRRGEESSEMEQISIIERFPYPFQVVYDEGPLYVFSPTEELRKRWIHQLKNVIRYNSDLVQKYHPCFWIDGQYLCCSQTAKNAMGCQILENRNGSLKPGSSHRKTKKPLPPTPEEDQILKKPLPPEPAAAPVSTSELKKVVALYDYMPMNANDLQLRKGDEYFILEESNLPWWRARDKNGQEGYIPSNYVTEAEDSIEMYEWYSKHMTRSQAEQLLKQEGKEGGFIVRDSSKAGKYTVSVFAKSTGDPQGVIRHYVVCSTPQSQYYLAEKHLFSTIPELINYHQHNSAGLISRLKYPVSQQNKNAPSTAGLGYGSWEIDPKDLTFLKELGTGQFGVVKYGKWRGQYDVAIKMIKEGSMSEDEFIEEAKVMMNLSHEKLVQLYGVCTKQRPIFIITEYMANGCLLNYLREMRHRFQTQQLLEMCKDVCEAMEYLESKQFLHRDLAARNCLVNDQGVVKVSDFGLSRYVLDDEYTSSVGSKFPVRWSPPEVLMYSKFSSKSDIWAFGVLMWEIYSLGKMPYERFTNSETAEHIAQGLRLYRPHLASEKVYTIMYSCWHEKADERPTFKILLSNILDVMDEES

[7] = Binding affinity to A2aR (unknown origin); design: species or system Homo sapiens
[8] = biological target: T3, Tyrosine-protein phosphatase non-receptor type 11 (Homo sapiens, UniProt Q06124)
T3 sequence (Q06124 whole entry): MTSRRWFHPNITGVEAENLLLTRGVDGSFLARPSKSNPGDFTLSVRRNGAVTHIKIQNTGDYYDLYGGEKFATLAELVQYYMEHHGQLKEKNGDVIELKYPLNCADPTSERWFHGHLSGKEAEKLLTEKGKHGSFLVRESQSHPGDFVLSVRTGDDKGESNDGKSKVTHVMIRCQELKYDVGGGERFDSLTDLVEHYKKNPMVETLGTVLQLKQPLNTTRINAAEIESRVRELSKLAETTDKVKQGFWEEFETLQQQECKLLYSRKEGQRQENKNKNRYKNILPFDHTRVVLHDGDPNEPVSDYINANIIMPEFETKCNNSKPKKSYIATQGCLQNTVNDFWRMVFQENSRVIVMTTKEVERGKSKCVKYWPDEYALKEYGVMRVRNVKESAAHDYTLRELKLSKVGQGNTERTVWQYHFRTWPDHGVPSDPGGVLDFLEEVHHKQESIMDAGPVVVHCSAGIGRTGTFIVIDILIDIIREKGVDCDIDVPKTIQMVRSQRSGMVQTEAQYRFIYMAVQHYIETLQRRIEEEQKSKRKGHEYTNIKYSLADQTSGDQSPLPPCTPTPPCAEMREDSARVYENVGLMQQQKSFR

[9] = biological target: T4, Tyrosine-protein phosphatase non-receptor type 1 (Homo sapiens, UniProt P18031)
T4 sequence (P18031 whole entry): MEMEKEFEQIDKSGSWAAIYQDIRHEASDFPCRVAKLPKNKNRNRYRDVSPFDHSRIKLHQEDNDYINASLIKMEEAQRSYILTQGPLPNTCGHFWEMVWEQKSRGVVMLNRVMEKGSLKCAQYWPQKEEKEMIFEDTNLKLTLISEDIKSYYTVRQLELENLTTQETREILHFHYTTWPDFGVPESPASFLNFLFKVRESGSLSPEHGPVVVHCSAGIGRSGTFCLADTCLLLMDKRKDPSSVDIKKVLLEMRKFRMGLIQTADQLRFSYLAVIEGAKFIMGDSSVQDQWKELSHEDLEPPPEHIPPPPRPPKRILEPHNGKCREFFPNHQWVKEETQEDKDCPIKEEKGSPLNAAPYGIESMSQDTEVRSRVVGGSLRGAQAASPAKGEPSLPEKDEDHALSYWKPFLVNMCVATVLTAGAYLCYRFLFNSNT

[10] = biological target: Tyrosine-protein phosphatase non-receptor type 6 (Homo sapiens, UniProt P29350)
Chain of Tyrosine-protein phosphatase non-receptor type 6 (P29350 whole entry): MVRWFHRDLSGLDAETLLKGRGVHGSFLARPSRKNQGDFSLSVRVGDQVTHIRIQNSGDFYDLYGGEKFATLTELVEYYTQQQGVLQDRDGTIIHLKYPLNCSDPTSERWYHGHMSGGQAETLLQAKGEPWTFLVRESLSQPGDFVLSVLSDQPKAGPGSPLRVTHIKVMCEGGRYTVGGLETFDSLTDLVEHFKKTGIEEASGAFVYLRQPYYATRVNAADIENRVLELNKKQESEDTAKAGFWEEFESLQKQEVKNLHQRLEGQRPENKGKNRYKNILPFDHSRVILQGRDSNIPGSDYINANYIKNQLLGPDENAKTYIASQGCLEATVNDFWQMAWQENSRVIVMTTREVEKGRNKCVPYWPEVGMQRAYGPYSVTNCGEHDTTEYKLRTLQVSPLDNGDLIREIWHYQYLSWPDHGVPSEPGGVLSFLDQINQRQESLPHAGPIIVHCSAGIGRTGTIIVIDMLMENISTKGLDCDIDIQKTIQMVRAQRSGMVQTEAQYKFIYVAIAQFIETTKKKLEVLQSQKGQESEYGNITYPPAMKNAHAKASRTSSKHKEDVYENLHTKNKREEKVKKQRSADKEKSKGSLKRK

[11] = biological target: Stimulator of interferon genes protein (Homo sapiens, UniProt Q86WV6); assay: Binding affinity to human STING assessed as dissociation constant by surface plasmon resonance
Chain of Stimulator of interferon genes protein (Q86WV6 whole entry): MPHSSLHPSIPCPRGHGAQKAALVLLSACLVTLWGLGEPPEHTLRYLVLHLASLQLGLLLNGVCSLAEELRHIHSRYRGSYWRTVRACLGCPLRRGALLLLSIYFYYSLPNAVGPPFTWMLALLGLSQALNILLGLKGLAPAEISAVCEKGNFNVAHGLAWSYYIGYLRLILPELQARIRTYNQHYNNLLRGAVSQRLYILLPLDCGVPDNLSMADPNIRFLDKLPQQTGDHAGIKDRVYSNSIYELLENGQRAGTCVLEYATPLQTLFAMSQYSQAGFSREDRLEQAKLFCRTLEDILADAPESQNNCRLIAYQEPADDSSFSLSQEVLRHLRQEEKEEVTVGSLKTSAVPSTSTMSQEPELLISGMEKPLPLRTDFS

L929 = assay: cells; details: Mus musculus
[12] = biological target: T3, Tyrosine-protein phosphatase non-receptor type 11; assay: Inhibition of SHP (unknown origin)
Arginase-1 [13] = biological target: T1, Arginase-1
[14] = Agonist activity at TNFalpha (unknown origin); design: species or system Homo sapiens
[15] = Agonist activity at IFNalpha (unknown origin); design: species or system Homo sapiens

IC50 (Arginase-1 [1]): 200 nM
IC50 [2]: 290 nM
SMILES: N[C@@](CCCCB(O)O)(C(=O)O)C1CCN(Cc2ccc(Cl)c(Cl)c2)CC1

IC50 [3]: 51 nM
SMILES: N=C(NO)NCC[C@H](N)C(=O)O [NOR-NOHA]

SMILES: COc1cccc(-c2nnc3n(Cc4ccccc4Cl)c(=O)c4ccccc4n23)c1O
IC50 [4]: 60000 nM
IC50 [5]: 60000 nM

IC50 [6]: 0.5 nM
SMILES: Cc1c(-c2c(F)cc(C(N)=O)c3[nH]c4c(c23)CC[C@H](C(C)(C)O)C4)cccc1N1C(=O)c2cccc(F)c2C(C)C1=O (stereo partly specified)

Ki [7]: 8.2 nM
SMILES: Nc1nc(-n2cccn2)nc(-n2cccn2)c1Br [PBF-509]

IC50 [8]: 30000 nM
IC50 [9]: 14500 nM
IC50 [10]: 30000 nM
SMILES: O=C1/C(=N\Nc2ccc(S(=O)(=O)O)cc2)C(c2ccc([N+](=O)[O-])cc2)NN1c1ccccc1 (stereo unspecified)

Kd [11]: 137000 nM
SMILES: COc1c(O)cc2oc3cc(O)c(CC=C(C)C)c(O)c3c(=O)c2c1CC=C(C)C [MANGOSTIN]

SMILES: NC1=NC2C(N=CN2[C@@H]2O[C@@H]3COP(=O)(O)O[C@H]4[C@@H](O)[C@H](N5C=NC6C(=O)NC(N)=NC65)O[C@@H]4COP(=O)(O)O[C@H]3[C@H]2O)C(=O)N1 (stereo partly specified)
EC50 (L929): > 500 nM

IC50 [9]: 1690 nM
SMILES: O=C1Nc2ccc(S(=O)(=O)NCc3ccc(F)cc3)cc2/C1=N/Nc1cccc(C(=O)O)c1

IC50 [12]: 71 nM
SMILES: Cc1nc(N2CCC(C)(N)CC2)c(CO)nc1-c1cccc(Cl)c1Cl

IC50 [3]: 30 nM
IC50 (Arginase-1 [13]): 270 nM
SMILES: N[C@@H](CSCCB(O)O)C(=O)O

pEC50 [14]: 6.5
pEC50 [15]: 9.3
SMILES: CCC[C@H](C)Oc1nc(N)c2[nH]c(=O)n(CCCCCN3CCCCC3)c2n1 [GSK-2245035]

IC50 (Arginase-1 [1]): 150 nM
IC50 [3]: 1600 nM
IC50 (Arginase-1 [13]): 3600 nM
SMILES: N=C(NO)NCCC[C@H](N)C(=O)O
